According to PMC6716157 (Journal of the American Chemical Society, 2019):

Key:
[1] = molecular target: MsCDH (carveol dehydrogenase, Msmeg_1410) (Mycolicibacterium smegmatis, UniProt A0QSA5); experiment: UV-vis absorbance of copurified NADH at […] nm; assay type: binding; settings: pH 7.0, non-exchangeable, oxidised by PMFT
[2] = molecular target: T1, MuMftD (MftD) (Mycobacterium ulcerans, UniProt A0PM50); experiment: HPLC of flavin released by heat from purified protein; assay type: binding; settings: copurified; bound reduced as isolated, released on oxidation
T1 sequence (A0PM50 1-390): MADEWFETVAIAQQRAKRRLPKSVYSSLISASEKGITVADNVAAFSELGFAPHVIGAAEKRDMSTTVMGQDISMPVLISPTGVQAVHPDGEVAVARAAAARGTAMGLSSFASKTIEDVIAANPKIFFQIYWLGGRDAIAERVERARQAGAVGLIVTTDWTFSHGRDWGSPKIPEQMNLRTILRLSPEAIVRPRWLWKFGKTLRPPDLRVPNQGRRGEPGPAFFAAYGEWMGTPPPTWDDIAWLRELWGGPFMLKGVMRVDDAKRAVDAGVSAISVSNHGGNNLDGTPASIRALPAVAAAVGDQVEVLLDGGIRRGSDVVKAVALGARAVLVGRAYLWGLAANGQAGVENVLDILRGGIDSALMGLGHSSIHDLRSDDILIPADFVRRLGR

[3] = molecular target: MsMftD (Mycolicibacterium smegmatis, UniProt A0QSB9); experiment: HPLC of product, aerobic; assay type: biochemical; settings: oxidative deamination to PMFT
Sequence of MsMftD (A0QSB9 whole entry): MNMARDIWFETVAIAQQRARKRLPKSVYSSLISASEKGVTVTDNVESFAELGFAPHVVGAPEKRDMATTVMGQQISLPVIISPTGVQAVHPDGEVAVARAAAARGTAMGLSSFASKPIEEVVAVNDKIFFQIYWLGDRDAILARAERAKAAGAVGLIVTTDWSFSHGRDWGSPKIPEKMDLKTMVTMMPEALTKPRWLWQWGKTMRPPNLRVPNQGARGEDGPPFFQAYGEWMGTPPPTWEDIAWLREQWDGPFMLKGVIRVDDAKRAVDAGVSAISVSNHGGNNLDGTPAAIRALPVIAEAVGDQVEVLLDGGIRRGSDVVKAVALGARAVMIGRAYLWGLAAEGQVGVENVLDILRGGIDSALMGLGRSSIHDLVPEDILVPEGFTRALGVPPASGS

Sequence of MsCDH (carveol dehydrogenase, Msmeg_1410) (A0QSA5 1-283): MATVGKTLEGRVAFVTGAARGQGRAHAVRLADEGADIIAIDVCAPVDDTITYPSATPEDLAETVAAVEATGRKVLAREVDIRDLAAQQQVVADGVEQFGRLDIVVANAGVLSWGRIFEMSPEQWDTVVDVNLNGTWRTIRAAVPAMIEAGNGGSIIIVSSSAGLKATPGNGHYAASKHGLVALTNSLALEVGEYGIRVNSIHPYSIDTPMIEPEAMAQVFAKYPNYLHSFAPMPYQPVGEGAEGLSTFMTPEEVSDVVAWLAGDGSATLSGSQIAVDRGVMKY

NC(=O)C1=CN([C@@H]2O[C@H](COP(=O)(O)OP(=O)(O)OC[C@H]3O[C@@H](n4cnc5c(N)ncnc54)[C@H](O)[C@@H]3O)[C@@H](O)[C@H]2O)C=CC1 [NADH]
UV-vis absorbance of copurified NADH at 340 nm [1]: PMFT is mediating the oxidation of NADH to NAD^+ on MsCDH

Cc1cc2nc3c(=O)[nH]c(=O)nc-3n(C[C@H](O)[C@H](O)[C@H](O)COP(=O)(O)O)c2cc1C [FMN]
HPLC of flavin released by heat from purified protein; UV-vis [2]: the absorbance features of the cofactor bound to MuMftD originated from FMN

CC1(C)C(Cc2ccc(O)cc2)NC(=O)C1N (stereo not drawn) [AHDP, 3-amino-5-[(p-hydroxyphenyl)methyl]-4,4-dimethyl-2-pyrrolidinone]
HPLC of product, aerobic [3]: the HPLC chromatogram for the MsMftD reaction showed similar results to that of MuMftD
